Reference: patent publication US20210388005A1, “FLUORESCENT COMPOUND AND PREPARATION METHOD AND USE FOR THE SAME” (NEUBORON MEDTECH LTD., priority 2019, published 2021)

Experiments:
[1] = near-infrared absorption spectrum in ethanol solution; assay type: physicochemical
Method: FIG. 3 is a near-infrared absorption spectrum of compound I-1 and compound I-2 in Example 4 in ethanol solution.
(§1) To a single-necked flask is added 300 ml of absolute ethyl alcohol, 6.47 g of 3-bromomethyl phenylboronate indole quaternary ammonium salt, 2-chloro-3-hydroxymethylene cyclohexene carboxaldehyde, and 0.15 g of sodium acetate. The mixture is reacted at 70° C. for 1 h, and spin dried to remove the solvent. The resulting residue is separated by column chromatography, to obtain fluorescent compounds I-1 and I-2. The fluorescent compound I-1 has a maximum fluorescence emission peak at 808 nm when excited at a wavelength of […], and has a near infrared absorption peak in ethanol solution at 785 nm. The fluorescent compound I-2 has a maximum fluorescence emission peak at 811 nm when excited at a wavelength of […], and has a near infrared absorption peak in ethanol solution at 788 nm.

[2] = fluorescence spectrum at room temperature; assay type: physicochemical; details: excited at a wavelength
Method: as §1

near infrared absorption peak [1]	maximum fluorescence emission peak [2]	SMILES
785 nm	808 nm	CC1(C)C(/C=C/C2=C(Cl)C(=C/C=C3/N(Cc4cccc(B(O)O)c4)c4ccccc4C3(C)C)/CCC2)=[N+](Cc2cccc(B(O)O)c2)c2ccccc21 [Compound I-1]
788 nm	811 nm	CC1(C)C(/C=C/C2=C(Cl)C(=C/C=C3/N(Cc4ccccc4)c4ccccc4C3(C)C)/CCC2)=[N+](Cc2cccc(B(O)O)c2)c2ccccc21 [Compound I-2]
